Data on ten compounds can be found in article PMC3118939 (Chemical research in toxicology, 2011).

Structures are written as SMILES. Where two headings read alike, the source gives them in different places.

The subject of series [1] is hypoxanthine phosphoribosyl transferase (hprt) gene of Chinese hamster ovary cells (CHO). Format: cell-based. Conditions: estimated from ref 53, 69-71.
Another series concerns rodents. Conditions: cited from earlier work.
The subject of a further series is colon of C57BL/6 mice. The note with it: cited from earlier work.
A further series deals with rat. Conditions: rat model; cited from earlier work.
The next series relates to CDF1 mice. Conditions: cited from earlier work.
Series [2] deals with colon of C57BL/6 mice (Big Blue mouse). The note with it: cited from earlier work.
Series [3] relates to human hepatocytes. The experiment in a line: 4-ABP and HAA biotransformation in human hepatocytes. It is filed as in vitro ADME. The note with it: PhIP 10 μM in human hepatocytes.
Series [4] deals with human hepatocytes. The note with it: cited from earlier work; for dose metabolized in human hepatocyte preparations: 10 μM dose; for dose that underwent metabolism: human hepatocytes, 10 μM, after 24 h incubation, previous studies.
Another series concerns P450 1A2. The note with it: human versus rat P450 1A2; cited from earlier work.
The test system of another series is rat hepatocytes. Conditions: cited from earlier work; for extent of metabolism in rat hepatocytes: even after 24 h; for N-oxidation products as share of the dose: rat hepatocytes.
In series [5] the test system is human hepatocytes. The experiment in a line: 4-ABP- and HAA-DNA adduct formation in freshly cultured human hepatocytes. Conditions: carcinogen 10 μM, 24 h incubation.

For `Nc1ccc(-c2ccccc2)cc1` [4-ABP, 4-aminobiphenyl], the “hprt mutants induced by one dG-C8 adduct per 10^7 bases in the CHO genome” value in [1] (dose concentration 2 μM) was ~ 0.7 hprt mutants per one million c. Also, in the series with rodents, the cancer induction entry was “induces cancer of the urinary bladder, liver, and mammary gland”.

For the compound `Nc1ccc2c(n1)[nH]c1ccccc12` [AαC, 2-amino-9H-pyrido[2,3-b]indole], the “hprt mutants induced by one dG-C8 adduct per 10^7 bases in the CHO genome” value in series [1] (dose concentration 1.5 μM) was ~2.5 hprt mutants per one million c. Moreover, the aberrant crypt foci result in the series with colon of C57BL/6 mice was “induces aberrant crypt foci”. Besides, the hepatocarcinogenicity entry with rat was “not a hepatocarcinogen”. The tumor induction entry in the series on CDF1 mice was “causes liver and blood vessel tumors”. Moreover, the lacI transgene mutagenicity result in series [2] was “potent lacI transgene mutagen”.

Take `Cn1c(=NO)n([C@@H]2O[C@H](C(=O)O)[C@@H](O)[C@H](O)[C@H]2O)c2ncc(-c3ccccc3)cc21` [HONH-N3-PhIP]: the “level of metabolite formed, lower than HON-PhIP-N^2-Gl” value in the series with human hepatocytes [3] is ~ 10 fold.

Consider `Cc1cnc2ccc3c(nc(N)n3C)c2n1` [MeIQx, 2-amino-3,8-dimethylimidazo[4,5-f]quinoxaline], for which the “hprt mutants induced by one dG-C8 adduct per 10^7 bases in the CHO genome” value in series [1] (dose concentration 1.5 μM) is recorded as “about 1.5 hprt mutants per one million c”. In the series on human hepatocytes [4], the “dose metabolized in human hepatocyte preparations” value is reported as > 75% and the “dose that underwent metabolism” value is listed as “up to 97%”. Also, the “catalytic efficiency of N-oxidation, human P450 1A2 superior to rat P450 1A2” value in the series on P450 1A2 was 11 fold. Further, in the series on rat hepatocytes, the “extent of metabolism in rat hepatocytes” value was “poorly metabolized” and the “N-oxidation products as share of the dose” value is on record as “less than 2%”.

In the case of `Cn1c(N)nc2ncc(-c3ccccc3)cc21` [PhIP, 2-amino-1-methyl-6-phenylimidazo[4,5-b]pyridine], the “hprt mutants induced by one dG-C8 adduct per 10^7 bases in the CHO genome” value in [1] (dose concentration 1.2 μM) was ~2.8 hprt mutants per one million c. Further, in the series on human hepatocytes [4], the “dose metabolized in human hepatocyte preparations” value was > 75% and the “dose that underwent metabolism” value is reported as “up to 97%”. Moreover, the “catalytic efficiency of N-oxidation, human P450 1A2 superior to rat P450 1A2” value in the series on P450 1A2 is 19 fold. Further, in the series on rat hepatocytes, the “extent of metabolism in rat hepatocytes” value is reported as “poorly metabolized” and the “N-oxidation products as share of the dose” value is reported as “less than 2%”.

Turning to `Nc1nc2c(nc(Nc3ccc(-c4ccccc4)cc3)n2[C@H]2C[C@H](O)[C@@H](CO)O2)c(=O)[nH]1` [dG-C8-4-ABP, N-(Deoxyguanosin-8-yl)-4-aminobiphenyl], the “DNA adduct formation, Adducts per 10^7 Bases” value came out at 150 Adducts per 10^7 Bases with human hepatocytes [5] (human hepatocytes donor HH B); 38.8 ± 4.8 Adducts per 10^7 Bases in the series on human hepatocytes [5] (human hepatocytes donor HH C); 100 Adducts per 10^7 Bases in the series on human hepatocytes [5] (human hepatocytes donor HH D); 49.0 ± 1.7 Adducts per 10^7 Bases in the series on human hepatocytes [5] (human hepatocytes donor HH F); 87.9 ± 8.3 Adducts per 10^7 Bases in the series on human hepatocytes [5] (human hepatocytes donor HH G); 70.0 ± 5.8 Adducts per 10^7 Bases in the series with human hepatocytes [5] (human hepatocytes donor HH H).

For `Nc1nc2c(nc(Nc3ccc4c(n3)[nH]c3ccccc34)n2[C@H]2C[C@H](O)[C@@H](CO)O2)c(=O)[nH]1` [dG-C8-AαC, N-(Deoxyguanosin-8-yl)-AαC], the “DNA adduct formation, Adducts per 10^7 Bases” value in the series with human hepatocytes [5] (human hepatocytes donor HH B) stood at 32.5 ± 1.8 Adducts per 10^7 Bases; in the series on human hepatocytes [5] (human hepatocytes donor HH C), 44.4 ± 5.6 Adducts per 10^7 Bases; in the series on human hepatocytes [5] (human hepatocytes donor HH D), 109 ± 6.4 Adducts per 10^7 Bases; with human hepatocytes [5] (human hepatocytes donor HH F) it was 72.0 ± 5.9 Adducts per 10^7 Bases; in the series on human hepatocytes [5] (human hepatocytes donor HH G), 82.0 ± 15.4 Adducts per 10^7 Bases; in the series with human hepatocytes [5] (human hepatocytes donor HH H), 31.4 ± 3.3 Adducts per 10^7 Bases.

For the compound `Cn1c(Nc2nc3c(=O)[nH]c(N)nc3n2[C@H]2C[C@H](O)[C@@H](CO)O2)nc2c3cccnc3ccc21` [dG-C8-IQ, N-(deoxyguanosin-8-yl)-IQ], the “DNA adduct formation, Adducts per 10^7 Bases” value with human hepatocytes [5] (human hepatocytes donor HH A) is given as 9.8 ± 1.1 Adducts per 10^7 Bases; in the series with human hepatocytes [5] (human hepatocytes donor HH B), 10.3 ± 0.6 Adducts per 10^7 Bases; in the series on human hepatocytes [5] (human hepatocytes donor HH C) it was 18.3 ± 0.8 Adducts per 10^7 Bases; in the series on human hepatocytes [5] (human hepatocytes donor HH D) it was 26.2 ± 1.9 Adducts per 10^7 Bases; in the series on human hepatocytes [5] (human hepatocytes donor HH G) it was 13.5 ± 1.5 Adducts per 10^7 Bases; in the series on human hepatocytes [5] (human hepatocytes donor HH H) it was 7.0 ± 2.2 Adducts per 10^7 Bases.

As for `Cc1cnc2ccc3c(nc(Nc4nc5c(=O)[nH]c(N)nc5n4[C@H]4C[C@H](O)[C@@H](CO)O4)n3C)c2n1` [dG-C8-MeIQx, N-(deoxyguanosin-8-yl)-MeIQx], the “DNA adduct formation, Adducts per 10^7 Bases” value in the series with human hepatocytes [5] (human hepatocytes donor HH A) worked out at 3.4 ± 0.3 Adducts per 10^7 Bases; in the series with human hepatocytes [5] (human hepatocytes donor HH B) it was 12.4 ± 0.6 Adducts per 10^7 Bases; in the series with human hepatocytes [5] (human hepatocytes donor HH C) it was 13.9 ± 0.2 Adducts per 10^7 Bases; in the series with human hepatocytes [5] (human hepatocytes donor HH D) it was 12.2 ± 3.5 Adducts per 10^7 Bases; in the series on human hepatocytes [5] (human hepatocytes donor HH F), 19.0 ± 1.9 Adducts per 10^7 Bases; in the series on human hepatocytes [5] (human hepatocytes donor HH G), 16.1 ± 1.0 Adducts per 10^7 Bases. Besides, the “DNA adduct formation, Adducts per 10^7 Bases” value with human hepatocytes [5] (human hepatocytes donor HH H) was 5.1 ± 0.1 Adducts per 10^7 Bases.

For the compound `Cn1c(Nc2nc3c(=O)[nH]c(N)nc3n2[C@H]2C[C@H](O)[C@@H](CO)O2)nc2ncc(-c3ccccc3)cc21` [dG-C8-PhIP, N-(deoxyguanosin-8-yl)-PhIP], the “DNA adduct formation, Adducts per 10^7 Bases” value with human hepatocytes [5] (human hepatocytes donor HH A) is 13.4 ± 1.7 Adducts per 10^7 Bases; with human hepatocytes [5] (human hepatocytes donor HH B), 22.0 Adducts per 10^7 Bases; with human hepatocytes [5] (human hepatocytes donor HH C) it was 7.5 ± 1.6 Adducts per 10^7 Bases; in the series on human hepatocytes [5] (human hepatocytes donor HH D), 7.7 ± 1.0 Adducts per 10^7 Bases; with human hepatocytes [5] (human hepatocytes donor HH F), 14.0 ± 0.6 Adducts per 10^7 Bases; in the series with human hepatocytes [5] (human hepatocytes donor HH G), 30.6 ± 2.4 Adducts per 10^7 Bases. The “DNA adduct formation, Adducts per 10^7 Bases” value with human hepatocytes [5] (human hepatocytes donor HH H) stood at 6.0 ± 1.0 Adducts per 10^7 Bases.
